Two compounds from US20180087086A1, “CELL EGRESS AND INVASION INHIBITORS AND THEIR USE AS ANTIPARASITICAL AGENTS” (THE JOHNS HOPKINS UNIVERSITY, priority 2015, published 2018) can be followed below.

Test [1] has as its system P. berghei parasites constitutively expressing mCherry. Briefly: live imaging of mCherry expressing sporozoite gliding. The class given is cell-based. As to conditions: for average gliding velocity: DMSO control 2.58+/−0.05 um/s; for total time spent gliding: 200 frame movies, control 46 frames; for pausing, fraction of active gliding time: control 7%; for waving sporozoites: manual assignment from z-stacks, control 15% waving. The text has this:
To determine the compound effects on the speed of gliding and type of gliding movement, live imaging of mCherry expressing parasites was used. P. berghei parasites constitutively expressing mCherry were allowed to settle on slides and imaged using an inverted microscope at 1.57 fps. ImageJ and the ToAST plugin were used to track parasites for a minimum of 150 frames in the 200 frame movies. The coordinates obtained via the automated tracking were much more useful than those using manual tracking. The ToAST plugin provides automatic identification of sporozoites from debris by aspect ratio and pixel analysis. The program also measures velocity and determine whether sporozoites are gliding in counterclockwise (CCW) or clockwise (CW) patterns, or whether they are stationary or waving, with large changes in vector angles between images.
Instead, the output position data was reanalyzed using similar algorithms as defined by ToAST. Sporozoites were assigned to one of four states at each time point, CW gliding, CCW gliding, stationary, or waving. To determine the speed of gliding, the average velocity was determined for sections of time in which the sporozoite was gliding continuously for more than 6 frames. Sporozoites would often glide for a number of frames and then stop gliding for a number of frames before continuing movement, resulting in more than one block of frames representing continuous gliding. The average for each sporozoite was a weighted average of the average speed during each block of gliding. The DMSO control parasites traveled in a CCW and CW pattern at an average speed of 2.58+/−0.05 um/s. […] Compound 4 gliding information was collected at a lower concentration compared to compound 18 because it was not possible to obtain a sufficient number of circularly gliding parasites for analysis at the higher concentrations (FIG. 11A).
As previously mentioned, sporozoites would often glide for several frames, then stop or pause, and then continue gliding. Upon initial observation of compound 4 samples, it was observed that parasites tended to glide in a stop-and-go manner, gliding for 4-6 frames and then stopping for 2-3 frames. To determine whether these pauses deviated from those observed in the control, the movies were analyzed to determine the total amount of time spent circularly gliding over the course of the 200 frame movies (FIG. 11C). Additionally, the fraction of time that the sporozoites paused for during active gliding was measured (FIG. 11D). A pause was defined as a cessation of circular gliding for no more than 10 frames. The fraction of paused frames to moving frames was measured for stretches of active gliding. […] Compound 4 increased pausing to 32% of the active gliding time, while compound 18 increased pauses to just 16% (FIG. 11D).
Z-stack images were created using ImageJ using the average intensity in each frame. From these frames, patterns of movements to one of two categories were assigned, circular gliding or waving. Waving sporozoites are defined as having on end attached while the other end moves or waves freely (FIG. 11F), resulting in large angular changes in the direction of the vector that lies along the sporozoite. Both compound 4 and 18 changed the ratio between gliding and waving sporozoites. In the control, nearly 85% of sporozoites are gliding circularly and 15% waving, whereas 72% and 66% are waving in compound 4 and 18 samples, respectively.

The target of test [2] is T1, rabbit aldolase (Oryctolagus cuniculus, UniProt P00883).
T1 sequence (P00883 1-364): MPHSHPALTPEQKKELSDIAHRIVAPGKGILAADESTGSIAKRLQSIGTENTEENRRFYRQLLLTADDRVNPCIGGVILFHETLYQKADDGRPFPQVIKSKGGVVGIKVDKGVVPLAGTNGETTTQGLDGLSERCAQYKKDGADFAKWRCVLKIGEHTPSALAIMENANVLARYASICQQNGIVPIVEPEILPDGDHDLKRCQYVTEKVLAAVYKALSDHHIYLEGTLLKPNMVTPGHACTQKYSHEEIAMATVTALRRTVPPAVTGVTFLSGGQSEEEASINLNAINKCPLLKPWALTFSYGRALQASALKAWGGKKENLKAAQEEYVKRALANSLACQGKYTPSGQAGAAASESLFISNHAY
Briefly: aldolase enzyme activity assay, rabbit aldolase. The class given is biochemical. As to conditions: surrogate for human aldolase. The source says:
(§1) FIGS. 16A-16D depict an aldolase enzyme activity assay. (A) Cartoon and surface representation of aldolase with TRAPpep bound (magenta, sticks) (PDB entry 2pc4), overlapping the F16BP (green, sticks) substrate binding site (PDB entry 4ald), via PyMOL. (B) Coupled enzyme assay to measure aldolase activity via NADH consumption as measured at 340 nm. (C) Concentration-dependent effect of compounds on PfAldolase inhibition in the presence of PbTRAP peptide. Activity is normalized to the PbTRAP control, which reduces Vmax to 50% of enzyme without PbTRAP. (D) PfAldolase activity in the presence of compounds to determine direct inhibition of enzyme by the compounds. Activity is normalized to the PfAldolase control measured Vmax. Standard error means plotted for activity assays and standard deviation for SPR data.
(§2) Dose-Dependent Enzymatic Inhibition of Compounds on P. falciparum Aldolase and Rabbit Aldolase as a Surrogate for Human Aldolase.

Test [3] concerns Plasmodium parasite. Briefly: cytocidal activity (assay not specified). The settings on record: 60 μM concentration. It is filed as cell-based. The source says: As described herein, inferring from sequence identity between TRAP and CTRP, the Aldolase-CTRP complex is inhibited during the mosquito stage.
The target in test [4] is P. falciparum aldolase in the presence of TRAP (Plasmodium falciparum, UniProt Q7KQL9). Briefly: aldolase enzyme activity assay, P. falciparum aldolase in the presence of TRAP. It is filed as biochemical. As to conditions: in the presence of TRAP and the compounds.
Excerpt: as §1, §2

In test [5] the test system is P. falciparum sporozoites. Briefly: dose-dependent killing of P. falciparum sporozoites. As to conditions: Plasmodium falciparum. It is filed as cell-based. The source says: Observed phenotype at lower concentration pinpoints towards an on-target effect of the compounds.

P. falciparum aldolase in the presence of TRAP, sequence (Q7KQL9 whole entry): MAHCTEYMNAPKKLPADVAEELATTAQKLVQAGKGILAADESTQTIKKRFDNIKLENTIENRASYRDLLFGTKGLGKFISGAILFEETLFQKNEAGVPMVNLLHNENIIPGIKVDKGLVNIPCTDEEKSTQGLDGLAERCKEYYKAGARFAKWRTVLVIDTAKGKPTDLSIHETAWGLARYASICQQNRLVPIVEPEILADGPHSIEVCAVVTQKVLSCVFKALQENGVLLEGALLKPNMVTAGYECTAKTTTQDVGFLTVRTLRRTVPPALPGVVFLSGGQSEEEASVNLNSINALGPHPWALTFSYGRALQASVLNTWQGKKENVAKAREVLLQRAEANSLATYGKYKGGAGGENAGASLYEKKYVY

With `Brc1ccc(Nc2nc3ccccc3nc2Nc2ccc(Br)cc2)cc1` [Compound 4, N,N′-bis(4-bromophenyl)-2,3-quinoxalinediamine], the average gliding velocity in test [1] (3.9 μM) is given as 1.81+/−0.09 um/s. For the same compound, in test [1], the “total time spent gliding” value was 25 frames; the “pausing, fraction of active gliding time” value came out at 32%; the waving sporozoites was 72%. Besides, the “enzyme inhibition on rabbit aldolase” value in test [2] is reported as “no enzyme inhibition”. Also, in test [3], the cytocidal activity entry was “cytocidal activity”. For the same compound, in test [4], the “inhibition of P. falciparum aldolase” value was “inhibited”. This compound had an EC90 in test [5] of approximately 125 µM.
Consider `CCCCn1c(N)c(C(=O)NCc2ccccc2)c2nc3ccccc3nc21` [Compound 18, 2-amino-N-benzyl-1-butyl-1H-pyrrolo[2,3-b]quinoxaline-3-carboxamide], for which, in test [1] (62.5 μM), the average gliding velocity is listed as 1.88+/−0.17 um/s. In test [1], the “total time spent gliding” value was found to be 16 frames; the “pausing, fraction of active gliding time” value is 16%; the waving sporozoites is listed as 66%. In test [5], this compound registered an EC90 of approximately 30 µM.

Usually EC90 stands for the point of the concentration-response curve where the effect stands at 90%.
